Reference: patent US12648941B2, “Piperidine urea derivatives for use as inotropic agents” (Helsinn Healthcare SA, priority 2021, dated 2026)
Like-named read-outs stand apart in the source and are kept apart here.

Test: Phase 1 single ascending dose study, plasma pharmacokinetics
Assay type: in vivo, human
Details: for AUClast/D / Cmax/D / AUC∞/D / CL/F / λz / AUC(0-t) / Cmax / AUC(0-inf) / MRT / Vd/F: geometric mean; for AUC(0-t): po; for Vd/F: read-out: Vz/F
Experimental: Single-center, randomized, double-blind, placebo-controlled, single ascending dose (SAD) study.
Screening examinations were performed within 28 days prior to dosing. Eligible subjects returned to the study center in the morning of Day-1 and remained in-patient until discharge at 72 hours after dosing (morning of Day 4) if there were no safety issues. The oral dose was administered in the morning of Day 1. Subjects returned to the clinic 7 days after treatment, in the morning of Day 8 (±1 day), for the safety assessments.
Healthy male non-smoking subjects, between 18 and 50 years of age inclusive, with a body mass index (BMI) between 18.5 and 29.9 kg/m^2 inclusive. Cohorts of 8 subjects per dose step were planned. Cohort 1 (10 mg or placebo) was stopped after dosing of 4 subjects. Cohorts 2 to 4 consisted of 8 subjects each, i.e., a total number of 28 subjects were randomized and completed the study. There were no withdrawals.
HM01 HCl powder in gelatine capsules. Capsules with the strength of 0.1 mg and 1.0 mg and 10 mg for cohort 1 were available. • Cohort 1:10 mg HM01 • Cohort 2:0.1 mg HM01 Cohort 3:0.3 mg HM01 Cohort 4:1.0 mg HM01
Subjects were dosed in a fasted state (no food for at least 8 hours). Access to food was restricted until 4 hours after dosing. Capsules were administered orally together with 240 mL water.
Blood samples for analytical assay of HM01 and the 3 major metabolites (M2, M6 and M9) were collected at pre-dose (within 60 minutes prior to drug administration), and at 0.25, 0.5, 1, 1.5, 2, 3, 4, 6, 8, 12, 16, 24, 30, 36, 48, 60 and 72 hours post dose (18 samples). Urine was collected for 24 hours after dosing. Blood and urine samples were analyzed for HM01 and its metabolites concentrations using validated LC-MS/MS methods.
PK parameters estimated included Cmax (maximum observed concentration), Cmax/D (Cmax per dose unit), tmax (peak time), Clast (last measurable concentration above the lower limit of quantification), tlast (time of Clast), AUC(0-24) and AUClast (area under the plasma concentration-time curve from time zero to 24 hours and to the last measurable concentration, tlast, respectively), AUClast/D (AUClast per dose unit), AUC∞(area under the plasma concentration-time curve from time zero to infinity), AUC∞(/D (AUC∞ per dose unit), t1/2 (apparent terminal half-life), CL/F (systemic clearance after extravascular administration, only for the parent drug), Vz/F (apparent volume of distribution after extravascular administration, only for the parent drug), MRT (mean residence time).

[1] = 0.1 mg HM01 single oral dose, N = 6
[2] = 0.3 mg HM01 single oral dose, N = 6
[3] = 0.3 mg HM01 single oral dose, n = 5
[4] = 1.0 mg HM01 single oral dose, N = 6
[5] = 10 mg HM01 single oral dose, N = 3
[6] = male, human, plasma, 0.3 mg HM01 single oral dose, n = 5
[7] = male, human, plasma, 1.0 mg HM01 single oral dose, N = 6
[8] = male, human, plasma, 10 mg HM01 single oral dose, N = 3

AUClast/D [1]: 4.899 (h * ng/mL)/mg
Cmax/D [1]: 1.357 (ng/mL)/mg
tlast (0.1 mg HM01 single oral dose, N = 6, median): 8.00 h
AUClast/D [2]: 9.396 (h * ng/mL)/mg
Cmax/D [2]: 0.9554 (ng/mL)/mg
tlast (0.3 mg HM01 single oral dose, N = 6, median): 16.00 h
AUC∞/D [3]: 15.19 (h * ng/mL)/mg
CL/F [3]: 65.8 L/h
λz [3]: 0.0821 h⁻¹
AUClast/D [4]: 14.71 (h * ng/mL)/mg
AUC∞/D [4]: 16.94 (h * ng/mL)/mg
CL/F [4]: 59.0 L/h
Cmax/D [4]: 1.280 (ng/mL)/mg
λz [4]: 0.0648 h⁻¹
tlast (1.0 mg HM01 single oral dose, N = 6, median): 36.00 h
AUClast/D [5]: 17.61 (h * ng/mL)/mg
AUC∞/D [5]: 17.88 (h * ng/mL)/mg
CL/F [5]: 55.9 L/h
Cmax/D [5]: 1.528 (ng/mL)/mg
λz [5]: 0.0646 h⁻¹
tlast (10 mg HM01 single oral dose, N = 3, median): 72.00 h
half-life (male, human, plasma, oral, similar for all doses, read-out: arithmetic mean half-life of HM01): 9 to 11 h
clearance (male, human, plasma, oral, similar for all doses, read-out: geometric mean clearance of HM01): 932 to 1100 mL/min
Tmax (male, human, plasma, oral, similar for all doses, read-out: median tmax of HM01): 3 to 4 h
apparent volume of distribution (Vz/F) (male, human, plasma, oral, similar for all doses, read-out: volume of distribution of HM01): 801 to 911 L
AUC(0-t) (male, human, plasma, 0.1 mg, 0.1 mg HM01 single oral dose, fasted healthy males, N = 6, read-out: AUClast): 0.49 ng·h/mL
AUC(0-t) (male, human, plasma, 0.3 mg, 0.3 mg HM01 single oral dose, N = 6, read-out: AUClast): 2.82 ng·h/mL
AUC(0-t) (male, human, plasma, 0.3 mg, 0.3 mg HM01 single oral dose, fasted healthy males, N = 6, read-out: AUC0-24h): 3.75 ng·h/mL
AUC(0-t) (male, human, plasma, 1 mg, 1.0 mg HM01 single oral dose, N = 6, read-out: AUClast): 14.7 ng·h/mL
AUC(0-t) (male, human, plasma, 1 mg, 1.0 mg HM01 single oral dose, fasted healthy males, N = 6, read-out: AUC0-24h): 13.4 ng·h/mL
AUC(0-t) (male, human, plasma, 10 mg, 10 mg HM01 single oral dose, N = 3, read-out: AUClast): 176 ng·h/mL
AUC(0-t) (male, human, plasma, 10 mg, 10 mg HM01 single oral dose, fasted healthy males, N = 3, read-out: AUC0-24h): 149 ng·h/mL
Cmax (male, human, plasma, 0.1 mg HM01 single oral dose, N = 6): 0.136 ng/mL
Tmax (male, human, plasma, 0.1 mg HM01 single oral dose, N = 6, median, read-out: tmax): 3 h
Cmax (male, human, plasma, 0.3 mg HM01 single oral dose, N = 6): 0.287 ng/mL
Tmax (male, human, plasma, 0.3 mg HM01 single oral dose, N = 6, median, read-out: tmax): 4 h
half-life (male, human, plasma, 0.3 mg HM01 single oral dose, n = 5, arithmetic mean, read-out: t1/2 (converted)): 8.83 h
AUC(0-inf) [6]: 4.56 ng·h/mL
MRT [6]: 14.4 h
Vd/F [6]: 801 L
half-life (male, human, plasma, 1.0 mg HM01 single oral dose, N = 6, arithmetic mean, read-out: t1/2 (converted)): 11 h
AUC(0-inf) [7]: 16.9 ng·h/mL
Cmax [7]: 1.28 ng/mL
MRT [7]: 15.3 h
Vd/F [7]: 911 L
Tmax (male, human, plasma, 1.0 mg HM01 single oral dose, N = 6, median, read-out: tmax): 4 h
half-life (male, human, plasma, 10 mg HM01 single oral dose, N = 3, arithmetic mean, read-out: t1/2 (converted)): 10.9 h
AUC(0-inf) [8]: 179 ng·h/mL
Cmax [8]: 15.3 ng/mL
MRT [8]: 14.2 h
Vd/F [8]: 866 L
Tmax (male, human, plasma, 10 mg HM01 single oral dose, N = 3, median, read-out: tmax): 3 h
dose dependence of AUC∞ (single oral doses of HM01): dose proportional increase
dose dependence of max (single oral doses of HM01): dose proportional increase
Structure (SMILES): COc1ccc([C@H](C)NC(=O)N(C)[C@@H]2CCN(C)CC2(C)C)c(Cl)c1Cl.Cl [AC01/HM01, 1-[(1S)-1-(2,3-dichloro-4-methoxyphenyl)ethyl]-3-methyl-3-[(4R)-1-methyl-3,3-dimethyl-4-piperidyl]-urea]
